Literature values as cited in article PMC8178945 (Computational and Structural Biotechnology Journal, 2021).

Molecular target: 3CL^Pro
Details: read-out: KD from isothermal titration calorimetry; previously obtained

For `O=c1cc(-c2ccccc2)oc2cc(O)c(O)c(O)c12` [baicalein], the Kd is given as 4.03 µM.
